Assay results taken from patent publication US20110236501A1, “INJECTABLE DUAL DELIVERY ALLOGRAPH BONE/POLYMER COMPOSITE FOR TREATMENT OF OPEN FRACTURES” (Vanderbilt University, priority 2007, published 2011).
Values after ≈ are worked out from the molar mass of the structure shown. Read-outs that look alike come from different tables or passages of the source.

Experiments:
[1] = In vitro release of vancomycin from PUR; format: physicochemical
Description: Methods: rhBMP-2 was purchased from R&D systems. V-FB was obtained by precipitation of vancomycin solution at pH 8. […] In vitro release experiment was carried out in PBS, with medium refreshed as indicated. […] The scaffolds were then tested in critical sized rat femoral segmental defects, contaminated or non-contaminated. After 4 or 8 weeks, the defects are harvested, and both the new bone formation and infection control were examined.

[2] = Solubility of tobramycin in polyester polyol; format: physicochemical
Description: Tobramycin was added as a powder to the hardener prior to reaction with the triisocyanate resin in order to minimize its reactivity with the reactive two-component polyurethane. Tobramycin's five primary amino groups otherwise cause it to react rapidly with isocyanates when in solution. Tobramycin is insoluble in polyester polyol, the primary component in the hardener; consequently the tobramycin remains in the solid phase during the chemical reaction. A loading of 8 wt-% was chosen to approximate the level of tobramycin delivered from the equivalent volume of PMMA cement beads, but higher loading can be achieved if necessary.

[3] = system: S. aureus; settings: cited from earlier work
[4] = In vitro release of BSA-FITC / protein from PUR scaffolds; format: physicochemical; settings: added in solution, after 21 days
Description: A scaffold of the present invention was prepared by one-shot reactive liquid molding of HDIt and hardener containing polyester triol and PEG. BSA-FITC was added to the hardener component prior to mixing with HDIt. Considering that proteins incorporate groups with active hydrogens (e.g., hydroxyl groups and amines), there is a concern that the protein will react with the polyisocyanate, resulting in damage to the protein. […] To protect the protein from reacting with the polyisocyanate, BSA-FITC was lyophilized with a varying amount of glucose excipient and then added to the hardener as a powder. […] The glucose dosage plays an important role in the release profile; the presence of 0.5% and 2% glucose increased the total amount released after 21 days and increased the initial burst release. Further increasing the glucose dosage to 5% decreased the total release.
To evaluate the effect of encapsulation protein into PLGA particles on the release kinetics from PUR scaffold, small pieces of PUR scaffold incorporated with BSA-FITC powder or PLGA particles encapsulated with BSA-FITC were incubated in a-MEM containing 1% BSA under 37° C. the medium was changed as indicated in FIG. 18. The amount of BSA-FITC was determined by emission fluorescence at 530 nm after excitation at 485 nm.

[5] = In vitro release of PDGF-BB (I-125 labeling and ELISA); format: physicochemical; settings: for total release of PDGF-BB: PUR scaffold with 2 wt % glucose
Description: To enhance the release of PDGF-BB, 2 wt % glucose was added to the scaffolds. The release profile was monitored by two methods. In the first approach, PDGF-BB was radiolabeled with iodine-125 (I-125) and a gamma reading machine was used to monitor the release kinetics. Release of PDGF-BB was also measured by ELISA assay using the liquid releasates. Both methods yield similar release profiles (FIG. 13), characterized by a burst release on the first day. The ELISA assay detected a lower total release (around 65%, compared with around 85% for I-125 labeling method), which is possibly due to denaturation of some fraction of the released protein which cannot be detected by its antibody.
To mitigate the burst release, another strategy was adopted to achieve controlled release of PDGF-BB from polyurethane scaffolds. Heparin was bound to the surface of microparticles made from amine-terminated PLGA (average size 50 μm) using standard carbodiimide techniques. PDGF-BB was then loaded onto the particle surface through heparin binding. […] To enhance the stability of the protein on the PLGA particle surface, the particles were granulated by mixing the particles with a small amount of gelatin solution followed by forcing through a 48-mesh sieve to form 110-μm granules. The granules were then added to the hardener component before reacting with isocyanate to form PUR/G-PDGF-BB polyurethane scaffolds. The PDGF-BB release from the granules is similar to that of particles when detected by I-125 labeling (FIG. 14A), but lower when measured by ELISA (FIG. 14B).

[6] = system: MC3T3 cells; test: In vitro cell proliferation assay of released PDGF-BB; format: cell-based; settings: released PDGF-BB vs fresh PDGF-BB
Description: To assess the in vitro bioactivity of released PDGF-BB from the polyurethane scaffolds, releasates at day 1, 3, and 7 from PUR/PDGF-BB and PUR/G-PDGF-BB scaffolds were lyophilized and reconstituted to the same PDGF-BB concentration. After MC3T3 cells attached to the 96-well plates, the serum content in the cell culture medium was decreased from 10% to 2.5%. At the same time, the reconstituted releasates were added at dosages of 3 and 10 ng/ml. Fresh PDGF-BB (i.e., not released from the scaffolds but used directly as received from the supplier) was the positive control. Cell numbers were measured at time points of 24 and 72 h by staining the DNA and measuring fluorescence on a plate reader. […] At the 72 h time point, a dose-dependent effect was observed, although it was not evident at the 24 h time point.

## CN[C@H](CC(C)C)C(=O)N[C@H]1C(=O)N[C@@H](CC(N)=O)C(=O)N[C@H]2C(=O)N[C@H]3C(=O)N[C@H](C(=O)N[C@H](C(=O)O)c4cc(O)cc(O)c4-c4cc3ccc4O)[C@H](O)c3ccc(c(Cl)c3)Oc3cc2cc(c3O[C@@H]2O[C@H](CO)[C@@H](O)[C@H](O)[C@H]2O[C@H]2C[C@](C)(N)[C@H](O)[C@H](C)O2)Oc2ccc(cc2Cl)[C@H]1O [V-FB, vancomycin free base]
[1]
  duration of vancomycin release above the MIC for S. aureus: up to 8 weeks
[1]; listed as vancomycin
  duration of vancomycin release above the MIC for S. aureus: over 8 weeks

## NC[C@H]1O[C@H](O[C@H]2[C@H](O)[C@@H](O[C@H]3O[C@H](CO)[C@@H](O)[C@H](N)[C@H]3O)[C@H](N)C[C@@H]2N)[C@H](N)C[C@@H]1O [tobramycin]
[2]
  solubility in polyester polyol: insoluble
[3]
  minimum bactericidal concentration: 16 µg/mL (≈ 34.2 µM)
  minimum inhibitory concentration: 4 to 8 µg/mL

## BSA-FITC: Bone serum albumin-fluorescein isothiocyanate
[4]
  release of BSA-FITC: < 20%

## PDGF-BB: Platelet-derived growth factor-BB
[5]; PDGF-BB added to PUR as a powder without the glucose excipient
  protein release: negligible protein release
[5]; ELISA
  total release of PDGF-BB: around 65%
[5]; I-125 labeling
  total release of PDGF-BB: around 85%
[6]
  decreased activity compared with the positive control: 20%
